According to patent US20160256449A1, “H3 RECEPTOR ANTAGONIST FOR USE IN THE TREATMENT OF ALZHEIMER'S DISEASE” (SANOFI, priority 2013, published 2016):
Counter-ions that a name gives are not always drawn.

Assays:
various rodent models = settings: cited from earlier work
scopolamine treated mice = experiment: object recognition task in scopolamine-treated mice; format: in vivo; settings: 1 mg/kg alone
Text: FIG. 2 illustrates the results of the effect of a co-treatment with 2-(cyclohexylmethyl)-N-{2-[(2S)-1-methylpyrrolidin-2-yl]ethyl}-1,2,3,4-tetrahydroisoquinoline-7-sulfonamide and donepezil on recognition memory deficit in scopolamine-treated mice using the object recognition task.
The results of this study are depicted in FIG. 2.

CD1 male mice = experiment: object recognition test in normal mice; format: in vivo; settings: 3 mg/kg oral, individually
Text: FIG. 1 illustrates the results of the effect of a co-treatment with 2-(cyclohexyl methyl)-N-{2-[(2S)-1-methyl pyrrolidin-2-yl]ethyl}-1,2,3,4-tetrahydroisoquinoline-7-sulfonamide and donepezil on recognition memory in normal mice at various delays using the object recognition task.
The results of this study are depicted in FIG. 1.

Row | Structure (SMILES) | cognitive performances on short-term and long-term memory and attention deficits (various rodent models) | activity of the amount given alone, episodic memory deficits (scopolamine treated mice) | memory in object recognition test (CD1 male mice; 24 hours after administration) | procognitive effect in object recognition test (CD1 male mice; after 48 hours)
1 | CN1CCC[C@H]1CCNS(=O)(=O)c1ccc2c(c1)CN(CC1CCCCC1)CC2 [2-(Cyclohexylmethyl)-N-{2-[(2S)-1-methylpyrrolidin-2-yl]ethyl}-1,2,3,4-tetrahydroisoquinoline-7-sulfonamide] | improves cognitive performances | – | – | –
2 | COc1cc2c(cc1OC)C(=O)C(CC1CCN(Cc3ccccc3)CC1)C2 (racemic) [donepezil hydrochloride, (±)-2,3-dihydro-5,6-dimethoxy-2-[[1-(phenylmethyl)-4-piperidinyl]methyl]-1H-inden-1-one, reference compound] | – | inactive | enhanced the memory | lack of procognitive effect
